# In ChEMBL document CHEMBL1133731, “Novel potent ligands for the central nicotinic acetylcholine receptor: synthesis, receptor binding, and 3D-QSAR analysis” (J Med Chem, 2000):
# Target: T1, Neuronal acetylcholine receptor; alpha4/beta2 (Rattus norvegicus, UniProt P09483+P12390)
# Assay: In vitro binding affinity for Nicotinic acetylcholine receptor alpha4-beta2 in rat cerebral cortical membrane using [3H]cytisine as radioligand
# Type: cell membranes
# Conditions: not given
# T1 sequence (P09483 whole entry): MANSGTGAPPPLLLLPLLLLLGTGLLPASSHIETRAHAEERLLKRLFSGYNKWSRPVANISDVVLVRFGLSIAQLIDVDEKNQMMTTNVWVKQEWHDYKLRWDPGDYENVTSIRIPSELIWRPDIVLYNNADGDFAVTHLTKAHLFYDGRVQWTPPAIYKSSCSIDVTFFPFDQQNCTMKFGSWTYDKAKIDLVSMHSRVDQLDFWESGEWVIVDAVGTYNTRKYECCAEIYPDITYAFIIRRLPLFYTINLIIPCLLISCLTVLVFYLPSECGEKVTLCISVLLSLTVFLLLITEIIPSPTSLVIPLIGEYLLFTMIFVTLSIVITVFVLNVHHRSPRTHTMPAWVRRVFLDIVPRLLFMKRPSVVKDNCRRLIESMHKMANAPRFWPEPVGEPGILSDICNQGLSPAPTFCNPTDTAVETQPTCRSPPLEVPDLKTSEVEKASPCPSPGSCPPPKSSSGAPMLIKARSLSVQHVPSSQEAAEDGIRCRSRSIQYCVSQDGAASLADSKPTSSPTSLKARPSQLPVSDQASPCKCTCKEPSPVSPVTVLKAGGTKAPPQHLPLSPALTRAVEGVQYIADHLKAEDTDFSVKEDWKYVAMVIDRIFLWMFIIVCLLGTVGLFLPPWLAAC
# T1 sequence (P12390 whole entry): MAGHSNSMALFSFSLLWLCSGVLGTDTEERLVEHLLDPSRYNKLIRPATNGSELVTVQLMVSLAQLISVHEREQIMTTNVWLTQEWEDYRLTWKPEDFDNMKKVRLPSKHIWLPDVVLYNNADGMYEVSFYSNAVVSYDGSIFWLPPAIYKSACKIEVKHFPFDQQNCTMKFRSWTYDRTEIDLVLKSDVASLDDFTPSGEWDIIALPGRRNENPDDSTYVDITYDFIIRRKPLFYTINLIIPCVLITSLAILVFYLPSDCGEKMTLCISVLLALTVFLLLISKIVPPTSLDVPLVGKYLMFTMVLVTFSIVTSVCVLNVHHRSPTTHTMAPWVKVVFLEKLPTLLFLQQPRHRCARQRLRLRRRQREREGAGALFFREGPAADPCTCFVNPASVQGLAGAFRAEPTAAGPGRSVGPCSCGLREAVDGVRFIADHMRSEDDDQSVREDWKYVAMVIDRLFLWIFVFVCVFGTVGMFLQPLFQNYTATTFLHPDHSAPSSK
row,Compound,IC50 [nM]
1,c1cncc(OC[C@@H]2CCN2)c1,1.5

# Same assay, conditions: read-out: IC50
row,Compound,IC50 [nM]
1,c1cncc(OC2CCNC2)c1 (configuration not stated),100
2,c1ccc(Sc2cncc(N3CCCNCC3)c2)cc1,4
3,C1=C(c2cccnc2)CC2CCC1N2 (configuration not stated),6.7
4,c1ccc2nc(-c3cncc(N4CCCNCC4)c3)ccc2c1,6.6
5,c1cncc(-c2cncc(N3CCCNCC3)c2)c1,2.8
6,COc1cc(N2CCCNCC2)cnc1OC,170
7,NC(=O)c1cncc(N2CCCNCC2)c1,20
8,COc1ccc(N2CCCNCC2)cn1,170
9,CCSc1ccc(N2CCCNCC2)cn1,170
10,Nc1cccc(-c2cncc(N3CCCNCC3)c2)c1,4
11,COc1cncc(N2CCCNCC2)c1,1.9
12,Oc1cncc(N2CCCNCC2)c1,2.4
13,COCCOc1cncc(N2CCCNCC2)c1,2.4
14,C1=CC(CSc2cncc(N3CCCNCC3)c2)C=C1,8
15,OCCOc1cncc(N2CCCNCC2)c1,1.8
16,CC(C)COc1cncc(N2CCCNCC2)c1,2.2
17,Clc1cncc(OC2CCNC2)c1 (configuration not stated),220
18,c1cncc(OC2CCCNC2)c1 (configuration not stated),190

# Target: T1, Neuronal acetylcholine receptor; alpha4/beta2
# Assay: In vitro binding affinity for Nicotinic acetylcholine receptor alpha4-beta2 (alpha4 beta-2 subtype of nAChRs) in rat cerebral cortical membrane using [3H]-cytisine as radioligand
# Type: cell membranes
# Conditions: not given
row,Compound,IC50 [nM]
1,COc1cc(N2CCCNCC2)cnc1Cl,0.68
2,C=COc1cncc(N2CCCNCC2)c1,5
3,CCOc1cc(N2CCCNCC2)cnc1Br,0.87
